Reference: publication PMC4494771, “Synthesis, structure, and biological activity of novel heterocyclic sulfonyl-carboximidamides” (Monatshefte Fur Chemie, 2013)
≈ marks a conversion by molar mass, not a printed value.

Columns and labels:
[1] = system: NCI-H522; test: NCI-60 DTP human tumor cell line screening; assay type: cell-based; details: Non-small cell lung cancer NCI-H522
[2] = system: EKVX; test: NCI-60 DTP human tumor cell line screening; assay type: cell-based; details: Non-small cell lung cancer EKVX
[3] = system: K-562; test: NCI-60 DTP human tumor cell line screening; assay type: cell-based
[4] = system: HOP-62; test: NCI-60 DTP human tumor cell line screening; assay type: cell-based; details: Non-small cell lung cancer HOP-62
[5] = system: SNB-75; test: NCI-60 DTP human tumor cell line screening; assay type: cell-based; details: CNS cancer SNB-75
[6] = system: RPMI-8226; test: NCI-60 DTP human tumor cell line screening; assay type: cell-based; details: Leukemia RPMI-8226
[7] = system: NCI-H23; test: NCI-60 DTP human tumor cell line screening; assay type: cell-based; details: Non-small cell lung cancer NCI-H23
[8] = system: RXF 393; test: NCI-60 DTP human tumor cell line screening; assay type: cell-based; details: Renal cancer RXF 393
[9] = system: P. acnes ATCC 11827; test: Antibacterial activity, MIC in broth serial dilution
Protocol: Compounds were tested at serial dilutions in bacterial broth starting at 100 μg/cm^3 (final concentration). P. acnes (ATCC 11827, lot 419697) was grown in thioglycollate nutrient broth (Hardy Diagnostics K29) for 72 h at 33 °C, then inoculated at the density equivalent to 0.5 McFarland standard and incubated with the test materials for another 72 h in an anaerobic environment. […] At the end of the incubation the MIC was assessed optically as the lowest concentration of a test material which caused no bacteria growth [34]. This optical assessment was further confirmed by measuring the absorbance at 655 nm with the BioRad 3550-UV microplate reader. The MIC was defined as at least 50 % inhibition of the increase of OD.

[10] = system: SR; test: NCI-60 DTP human tumor cell line screening; assay type: cell-based; details: Leukemia SR
[11] = system: SF-268; test: NCI-60 DTP human tumor cell line screening; assay type: cell-based; details: CNS cancer SF-268
[12] = system: OVCAR-3; test: NCI-60 DTP human tumor cell line screening; assay type: cell-based; details: Ovarian cancer OVCAR-3
[13] = system: 786-0; test: NCI-60 DTP human tumor cell line screening; assay type: cell-based; details: Renal cancer 786-0
[14] = system: HCT-116; test: NCI-60 DTP human tumor cell line screening; assay type: cell-based; details: Colon cancer HCT-116
[15] = system: MDA-MB-231/ATCC; test: NCI-60 DTP human tumor cell line screening; assay type: cell-based; details: Breast cancer MDA-MB-231/ATCC
[16] = system: NCI-H322M; test: NCI-60 DTP human tumor cell line screening; assay type: cell-based; details: Non-small cell lung cancer NCI-H322M
[17] = system: MALME-3M; test: NCI-60 DTP human tumor cell line screening; assay type: cell-based; details: Melanoma MALME-3M
[18] = system: HS 578T; test: NCI-60 DTP human tumor cell line screening; assay type: cell-based; details: Breast cancer HS 578T
[19] = system: COLO 205; test: NCI-60 DTP human tumor cell line screening; assay type: cell-based; details: Colon cancer COLO 205
[20] = system: SK-MEL-28; test: NCI-60 DTP human tumor cell line screening; assay type: cell-based; details: Melanoma SK-MEL-28
[21] = system: MCF-7; test: NCI-60 DTP human tumor cell line screening; assay type: cell-based
[22] = system: PC-3; test: NCI-60 DTP human tumor cell line screening; assay type: cell-based; details: Prostate cancer PC-3
[23] = system: SF-539; test: NCI-60 DTP human tumor cell line screening; assay type: cell-based; details: CNS cancer SF-539
[24] = system: CCRF-CEM; test: NCI-60 DTP human tumor cell line screening; assay type: cell-based; details: Leukemia CCRF-CEM
[25] = system: ACHN; test: NCI-60 DTP human tumor cell line screening; assay type: cell-based; details: Renal cancer ACHN
[26] = system: U251; test: NCI-60 DTP human tumor cell line screening; assay type: cell-based; details: CNS cancer U251
[27] = system: SK-MEL-5; test: NCI-60 DTP human tumor cell line screening
[28] = system: neonatal human dermal fibroblasts (ATCC PCS-201-010); test: Cytotoxic activity, fibroblast proliferation (sulforhodamine B); assay type: cell-based
Protocol: Passage for normal neonatal human dermal fibroblasts (ATCC PCS-201-010, lot 58243223) were grown in DMEM with 5 % calf serum (Hyclone). For the experiment, cells were plated in DMEM/5 % serum at 2,000 cells/well in 96 well plates (plate 598) and were exposed to test materials for 96 h. MAP and bFGF were used as the positive controls and water, 1, 0.5, and 0.25 % DMSO were used as the negative controls. Plate growth was stopped and cells were stained with a sulforhodamine B dye. The dye was then dissolved and a colorimetric signal proportional to total cell/protein count was quantified with the BioRad microplate spectrophotometer 3550-UV at 570 nm with background subtraction at 660 nm and analyzed with Microplate Manager v.2 software for Macintosh (BioRad). Error bars represent standard errors of the mean (SEM). P values representing statistical significance were calculated using the t test.

[29] = system: A498; test: NCI-60 DTP human tumor cell line screening; assay type: cell-based; details: Renal cancer A498
[30] = system: OVCAR-8; test: NCI-60 DTP human tumor cell line screening; assay type: cell-based; details: Ovarian cancer OVCAR-8
[31] = system: SW-620; test: NCI-60 DTP human tumor cell line screening; assay type: cell-based

SMILES: NC(=NS(=O)(=O)c1ccccc1Cl)c1ccc2ccccc2n1 [Compound 15, N′-(2-Chlorophenylsulfonyl)quinoline-2-carboximidamide]
- GI50 ([1]; Homo sapiens): 2280 nM
- TGI [1]: 7.62 µM
- GI50 ([2]; Homo sapiens): 8.75 µM
- TGI [2]: ^c (Determined TGI values were >100 μM)
- inhibition at 10 µM ([3]; Homo sapiens, K562, read-out: Growth inhibition ΔGI): 35.9%
- GI50 ([3]; Homo sapiens, K562, Leukemia K-562): 3.11 µM
- TGI ([3]; Leukemia K-562): ^c (Determined TGI values were >100 μM)
- GI50 ([4]; Homo sapiens): 5.37 µM
- TGI [4]: ^c (Determined TGI values were >100 μM)
- TGI [5]: 30.60 µM
- GI50 ([5]; Homo sapiens): 2520 nM
- GI50 ([6]; Homo sapiens): 5.27 µM
- TGI [6]: ^c (Determined TGI values were >100 μM)
- GI50 ([7]; Homo sapiens): 5.44 µM
- TGI [7]: ^c (Determined TGI values were >100 μM)
- GI50 ([8]; Homo sapiens): 4.02 µM
- TGI [8]: 35.90 µM
- MIC ([9]; Cutibacterium acnes, ATCC11827, 72 h, read-out: MIC P. acnes, P. acnes ATCC 11827, 72 h anaerobic): 12.5 to 50 µg/mL (≈ 36.1 to 145 µM)
- MIC P. acnes ([9]; P. acnes ATCC 11827, 72 h anaerobic): 12.5 µg/mL (≈ 36.1 µM)
- GI50 ([10]; Homo sapiens): 920 nM
- TGI [10]: 21.40 µM
- TGI [11]: ^c (Determined TGI values were >100 μM)
- GI50 ([11]; Homo sapiens): 6.79 µM
- GI50 [12]: 9.27 µM
- GI50 ([13]; Homo sapiens): 4.94 µM
- TGI [13]: ^c (Determined TGI values were >100 μM)
- TGI [14]: ^c (Determined TGI values were >100 μM)
- GI50 ([14]; Homo sapiens): 4.66 µM
- TGI [15]: ^c (Determined TGI values were >100 μM)
- GI50 ([15]; Homo sapiens): 13 µM
- GI50 ([16]; Homo sapiens): 5.19 µM
- TGI [16]: ^c (Determined TGI values were >100 μM)
- GI50 ([17]; Homo sapiens): 5.42 µM
- TGI [17]: ^c (Determined TGI values were >100 μM)
- TGI [18]: ^c (Determined TGI values were >100 μM)
- GI50 ([18]; Homo sapiens): 8.98 µM
- TGI [19]: 16.00 µM
- GI50 ([19]; Homo sapiens): 3.68 µM
- GI50 ([20]; Homo sapiens): 5.45 µM
- TGI [20]: 12.00 µM
- TGI ([21]; Breast cancer MCF-7): ^c (Determined TGI values were >100 μM)
- inhibition at 10 µM ([21]; Homo sapiens, MCF7, read-out: Growth inhibition ΔGI): 15.7%
- GI50 ([21]; Homo sapiens, MCF7, Breast cancer MCF-7): 3.28 µM
- GI50 ([22]; Homo sapiens): 9.59 µM
- TGI [22]: ^c (Determined TGI values were >100 μM)
- TGI [23]: ^c (Determined TGI values were >100 μM)
- GI50 ([23]; Homo sapiens): 4.19 µM
- GI50 ([24]; Homo sapiens): 3.65 µM
- TGI [24]: ^c (Determined TGI values were >100 μM)
- GI50 ([25]; Homo sapiens): 7.19 µM
- TGI [25]: 13.10 µM
- TGI [26]: ^c (Determined TGI values were >100 μM)
- GI50 ([26]; Homo sapiens, U-251): 4.48 µM
- GI50 ([27]; Homo sapiens, SK-MEL-5): 3.31 µM
- CC50 ([27]; Homo sapiens, SK-MEL-5, read-out: LC 50): 36.2 µM
- TGI ([27]; Melanoma SK-MEL-5): 50.50 µM
- growth inhibitory activity ([28]; 6.25 μg/cm^3): 70%
- cytotoxic activity on fibroblast proliferation ([28]; 96 h, 6.25–100 μg/cm^3): strongly cytotoxic
- GI50 ([29]; Homo sapiens): 8.08 µM
- TGI [29]: ^c (Determined TGI values were >100 μM)
- GI50 ([30]; Homo sapiens): 5.74 µM
- TGI [30]: 12.00 µM
- TGI ([31]; Colon cancer SW-620): ^c (Determined TGI values were >100 μM)
- inhibition at 10 µM ([31]; Homo sapiens, SW-620, read-out: Growth inhibition ΔGI): 24.7%
- GI50 ([31]; Homo sapiens, Colon cancer SW-620): 3.45 µM
